# Experimental data taken from PubChem BioAssay (NCI).
#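 Compound exposure: 48 hours, 5 concentrations, 96-well plates. TGI marks complete inhibition of growth.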
# Legend:
# Assay in all cases: NCI-60 cell line screen, 48 h
# 786-0 renal = tested on: 786-0 renal
# RXF 393 renal = tested on: RXF 393 renal
# M14 melanoma = tested on: M14 melanoma
# SK-MEL-5 melanoma = tested on: SK-MEL-5 melanoma
# CCRF-CEM leukemia = tested on: CCRF-CEM leukemia
# NCI-H460 lung = tested on: NCI-H460 lung
# MDA-MB-435 = tested on: MDA-MB-435
# ACHN renal = tested on: ACHN renal
# UACC-62 melanoma = tested on: UACC-62 melanoma
# HCT-116 colon = tested on: HCT-116 colon
# SF-295 CNS = tested on: SF-295 CNS
# LOX IMVI melanoma = tested on: LOX IMVI melanoma
# KM12 colon = tested on: KM12 colon
# SK-OV-3 ovarian = tested on: SK-OV-3 ovarian
# SF-539 CNS = tested on: SF-539 CNS
# HOP-92 NSCLC = tested on: HOP-92 NSCLC
# EKVX NSCLC = tested on: EKVX NSCLC
# SW-620 colon = tested on: SW-620 colon
# SR leukemia = tested on: SR leukemia
# HCT-15 colon = tested on: HCT-15 colon
# IGROV1 ovarian = tested on: IGROV1 ovarian
# MOLT-4 leukemia = tested on: MOLT-4 leukemia
# U251 CNS = tested on: U251 CNS
# NCI-H23 lung = tested on: NCI-H23 lung
# MDA-N = tested on: MDA-N
# UO-31 renal = tested on: UO-31 renal
# DU-145 prostate = tested on: DU-145 prostate
# COLO 205 colon = tested on: COLO 205 colon
# SK-MEL-2 melanoma = tested on: SK-MEL-2 melanoma
# HOP-62 NSCLC = tested on: HOP-62 NSCLC
# NCI-H226 lung = tested on: NCI-H226 lung
# HL-60(TB) leukemia = tested on: HL-60(TB) leukemia
# HS 578T breast = tested on: HS 578T breast
# SF-268 CNS = tested on: SF-268 CNS
# OVCAR-3 ovarian = tested on: OVCAR-3 ovarian
# PC-3 prostate = tested on: PC-3 prostate
# SN12C renal = tested on: SN12C renal
# RPMI-8226 leukemia = tested on: RPMI-8226 leukemia
# UACC-257 melanoma = tested on: UACC-257 melanoma
# MALME-3M melanoma = tested on: MALME-3M melanoma
# HCC-2998 colon = tested on: HCC-2998 colon
# T-47D breast = tested on: T-47D breast
# SNB-19 CNS = tested on: SNB-19 CNS
# NCI/ADR-RES ovarian = tested on: NCI/ADR-RES ovarian
# TK-10 renal = tested on: TK-10 renal
# OVCAR-5 ovarian = tested on: OVCAR-5 ovarian
# SNB-75 CNS = tested on: SNB-75 CNS
# K-562 leukemia = tested on: K-562 leukemia
# MDA-MB-231 breast = tested on: MDA-MB-231 breast
# A498 renal = tested on: A498 renal
# A549 NSCLC = tested on: A549 NSCLC
# OVCAR-8 ovarian = tested on: OVCAR-8 ovarian
# HT29 colon = tested on: HT29 colon
# SK-MEL-28 melanoma = tested on: SK-MEL-28 melanoma
# MCF7 breast = tested on: MCF7 breast
# NCI-H522 lung = tested on: NCI-H522 lung
# CAKI-1 renal = tested on: CAKI-1 renal
# OVCAR-4 ovarian = tested on: OVCAR-4 ovarian
# BT-549 breast = tested on: BT-549 breast
structure (smiles),measurement,setting,value
CC(=O)NC1C(OCc2ccccc2)OC(CO)C(O)C1OCC(=O)N1CCCC1C(=O)NC(CCC(=O)NCCCCCNc1c2ccccc2nc2cccc([N+](=O)[O-])c12)C(N)=O (configuration not stated),TGI,786-0 renal,924 nM
same,TGI,RXF 393 renal,25.3 nM
same,TGI,M14 melanoma,59.1 nM
same,TGI,SK-MEL-5 melanoma,38.6 nM
same,TGI,CCRF-CEM leukemia,1080 nM
same,TGI,NCI-H460 lung,17.1 nM
same,TGI,MDA-MB-435,33 nM
same,TGI,ACHN renal,81.3 nM
same,TGI,UACC-62 melanoma,75.1 nM
same,TGI,HCT-116 colon,137 nM
same,TGI,SF-295 CNS,724 nM
same,TGI,LOX IMVI melanoma,733 nM
same,TGI,KM12 colon,130 nM
same,TGI,SK-OV-3 ovarian,538 nM
same,TGI,SF-539 CNS,97 nM
same,TGI,HOP-92 NSCLC,101 nM
same,TGI,EKVX NSCLC,633 nM
same,TGI,SW-620 colon,42.4 nM
same,TGI,SR leukemia,5010 nM
same,TGI,HCT-15 colon,90.6 nM
same,TGI,IGROV1 ovarian,860 nM
same,TGI,MOLT-4 leukemia,4550 nM
same,TGI,U251 CNS,206 nM
same,TGI,NCI-H23 lung,904 nM
same,TGI,MDA-N,49.9 nM
same,TGI,UO-31 renal,115 nM
same,TGI,DU-145 prostate,107 nM
same,TGI,COLO 205 colon,39 nM
same,TGI,SK-MEL-2 melanoma,45.6 nM
same,TGI,HOP-62 NSCLC,125 nM
same,TGI,NCI-H226 lung,514 nM
same,TGI,HL-60(TB) leukemia,3980 nM
same,TGI,HS 578T breast,190 nM
same,TGI,SF-268 CNS,96.6 nM
same,TGI,OVCAR-3 ovarian,142 nM
same,TGI,PC-3 prostate,29.3 nM
same,TGI,SN12C renal,75.3 nM
same,TGI,RPMI-8226 leukemia,789 nM
same,TGI,UACC-257 melanoma,327 nM
same,TGI,MALME-3M melanoma,42.5 nM
same,TGI,HCC-2998 colon,27 nM
same,TGI,T-47D breast,8410 nM
same,TGI,SNB-19 CNS,493 nM
same,TGI,NCI/ADR-RES ovarian,1090 nM
same,TGI,TK-10 renal,762 nM
same,TGI,OVCAR-5 ovarian,60 nM
same,TGI,SNB-75 CNS,479 nM
same,TGI,K-562 leukemia,47.5 nM
same,TGI,MDA-MB-231 breast,42.6 nM
same,TGI,A498 renal,345 nM
same,TGI,A549 NSCLC,137 nM
same,TGI,OVCAR-8 ovarian,81.7 nM
same,TGI,HT29 colon,12500 nM
same,TGI,SK-MEL-28 melanoma,110 nM
same,TGI,MCF7 breast,502 nM
same,TGI,NCI-H522 lung,250 nM
same,TGI,CAKI-1 renal,134 nM
same,TGI,OVCAR-4 ovarian,3980 nM
COC1C(OC(N)=O)C(O)C(Oc2ccc3c(O)c(NC(=O)c4ccc(O)c(CC=C(C)C)c4)c(=O)oc3c2C)OC1(C)C (configuration not stated),TGI,786-0 renal,> 100000 nM
same,TGI,RXF 393 renal,> 100000 nM
same,TGI,M14 melanoma,> 100000 nM
same,TGI,SK-MEL-5 melanoma,> 100000 nM
same,TGI,CCRF-CEM leukemia,> 100000 nM
same,TGI,NCI-H460 lung,> 100000 nM
same,TGI,MDA-MB-435,> 100000 nM
same,TGI,ACHN renal,> 100000 nM
same,TGI,UACC-62 melanoma,> 100000 nM
same,TGI,HCT-116 colon,> 100000 nM
same,TGI,KM12 colon,> 100000 nM
same,TGI,SK-OV-3 ovarian,> 100000 nM
same,TGI,SF-539 CNS,> 100000 nM
same,TGI,EKVX NSCLC,> 100000 nM
same,TGI,SW-620 colon,> 100000 nM
same,TGI,SR leukemia,> 100000 nM
same,TGI,HCT-15 colon,> 100000 nM
same,TGI,IGROV1 ovarian,> 100000 nM
same,TGI,MOLT-4 leukemia,> 100000 nM
same,TGI,U251 CNS,> 100000 nM
same,TGI,MDA-N,> 100000 nM
same,TGI,UO-31 renal,> 100000 nM
same,TGI,DU-145 prostate,> 100000 nM
same,TGI,COLO 205 colon,> 100000 nM
same,TGI,SK-MEL-2 melanoma,> 100000 nM
same,TGI,HOP-62 NSCLC,> 100000 nM
same,TGI,SF-268 CNS,> 100000 nM
same,TGI,OVCAR-3 ovarian,> 100000 nM
same,TGI,PC-3 prostate,> 100000 nM
same,TGI,SN12C renal,> 100000 nM
same,TGI,RPMI-8226 leukemia,> 100000 nM
same,TGI,BT-549 breast,> 100000 nM
same,TGI,UACC-257 melanoma,> 100000 nM
same,TGI,MALME-3M melanoma,> 100000 nM
same,TGI,HCC-2998 colon,> 100000 nM
same,TGI,T-47D breast,> 100000 nM
same,TGI,SNB-19 CNS,> 100000 nM
same,TGI,NCI/ADR-RES ovarian,> 100000 nM
same,TGI,OVCAR-5 ovarian,> 100000 nM
same,TGI,SNB-75 CNS,> 100000 nM
same,TGI,K-562 leukemia,> 100000 nM
same,TGI,MDA-MB-231 breast,> 100000 nM
same,TGI,A498 renal,> 100000 nM
same,TGI,A549 NSCLC,> 100000 nM
same,TGI,OVCAR-8 ovarian,> 100000 nM
same,TGI,HT29 colon,> 100000 nM
same,TGI,SK-MEL-28 melanoma,> 100000 nM
same,TGI,MCF7 breast,> 100000 nM
same,TGI,CAKI-1 renal,> 100000 nM
